15 molecules from patent US9487515B2, “Compounds modulating c-fms and/or c-kit activity and uses therefor” (Plexxikon Inc., priority 2006, dated 2016) can be followed below.

Sequence of c-kit (P10721 with tags, fused parts or gaps): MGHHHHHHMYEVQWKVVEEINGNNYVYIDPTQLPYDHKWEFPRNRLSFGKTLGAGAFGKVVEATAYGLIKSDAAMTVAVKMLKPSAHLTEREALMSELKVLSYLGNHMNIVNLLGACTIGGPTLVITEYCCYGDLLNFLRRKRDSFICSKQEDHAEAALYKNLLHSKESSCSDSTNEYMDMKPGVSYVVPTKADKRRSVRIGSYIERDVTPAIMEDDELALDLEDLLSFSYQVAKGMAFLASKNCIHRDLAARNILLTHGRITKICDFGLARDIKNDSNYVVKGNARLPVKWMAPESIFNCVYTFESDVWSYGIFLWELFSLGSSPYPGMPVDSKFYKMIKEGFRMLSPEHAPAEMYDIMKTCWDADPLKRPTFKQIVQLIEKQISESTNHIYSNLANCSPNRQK

This experiment has as its target c-kit (Homo sapiens, UniProt P10721). Description: c-kit assays of Examples 40 and 41 (AlphaScreen kinase assays at 10 and 100 μM ATP, 33P-ATP filter assay, M-07e SCF-stimulated proliferation and phosphorylation). (Alpha assays give light when donor and acceptor beads are brought close together.)
One may read the IC50 as the concentration that gives 50% inhibition. A higher IC50 goes with lower potency. `N#Cc1cnc2[nH]cc(Cc3ccc(NCc4ccccc4C(F)(F)F)nc3)c2c1` [P-0274, 3-[6-(2-Trifluoromethyl-benzylamino)-pyridin-3-ylmethyl]-1H-pyrrolo[2,3-b]pyridine-5-carbonitrile] gave an IC50 of less than 1000 nM.

The molecule `FC(F)(F)c1ccccc1CNc1ccc(Cc2c[nH]c3ncc(Cl)cc23)cn1` [P-0275, [5-(5-Chloro-1H-pyrrolo[2,3-b]pyridin-3-ylmethyl)-pyridin-2-yl]-(2-trifluoromethyl-benzyl)-amine] showed an IC50 of less than 1000 nM.

As for `Cc1cnc2[nH]cc(Cc3ccc(NCc4ccccc4C(F)(F)F)nc3)c2c1` [P-0276, [5-(5-Methyl-1H-pyrrolo[2,3-b]pyridin-3-ylmethyl)-pyridin-2-yl]-(2-trifluoromethyl-benzyl)-amine], the IC50 is less than 1000 nM.

The molecule `N#Cc1cnc2[nH]cc(Cc3ccc(NCc4c(F)cccc4F)nc3)c2c1` [P-0277, 3-[6-(2,6-Difluoro-benzylamino)-pyridin-3-ylmethyl]-1H-pyrrolo[2,3-b]pyridine-5-carbonitrile] displayed an IC50 of less than 1000 nM.

Consider `Fc1cccc(F)c1CNc1ccc(Cc2c[nH]c3ncc(Cl)cc23)cn1` [P-0278, [5-(5-Chloro-1H-pyrrolo[2,3-b]pyridin-3-ylmethyl)-pyridin-2-yl]-(2,6-difluoro-benzyl)-amine], for which the IC50 is less than 1000 nM.

`Cc1cnc2[nH]cc(Cc3ccc(NCc4ccccc4Cl)nc3)c2c1` [P-0279, (2-Chloro-benzyl)-[5-(5-methyl-1H-pyrrolo[2,3-b]pyridin-3-ylmethyl)-pyridin-2-yl]-amine] yielded an IC50 of less than 1000 nM.

`Clc1cnc2[nH]cc(Cc3ccc(NCc4ccccc4Cl)nc3)c2c1` [P-0280, (2-Chloro-benzyl)-[5-(5-chloro-1H-pyrrolo[2,3-b]pyridin-3-ylmethyl)-pyridin-2-yl]-amine] had an IC50 of less than 1000 nM.

`N#Cc1cnc2[nH]cc(Cc3ccc(NCc4ccccc4Cl)nc3)c2c1` [P-0281, 3-[6-(2-Chloro-benzylamino)-pyridin-3-ylmethyl]-1H-pyrrolo[2,3-b]pyridine-5-carbonitrile] showed an IC50 of less than 1000 nM.

For the molecule `COc1ccc(CNc2ccc(Cc3c[nH]c4ncc(C)cc34)cn2)cn1` [P-0282, (6-Methoxy-pyridin-3-ylmethyl)-[5-(5-methyl-1H-pyrrolo[2,3-b]pyridin-3-ylmethyl)-pyridin-2-yl]-amine], the IC50 was less than 1000 nM.

`COc1ccc(CNc2ccc(Cc3c[nH]c4ncc(Cl)cc34)cn2)cn1` [P-0283, [5-(5-Chloro-1H-pyrrolo[2,3-b]pyridin-3-ylmethyl)-pyridin-2-yl]-(6-methoxy-pyridin-3-ylmethyl)-amine] registered an IC50 of less than 1000 nM.

For `COc1ccc(CNc2ccc(Cc3c[nH]c4ncc(C#N)cc34)cn2)cn1` [P-0284, 3-{6-[(6-Methoxy-pyridin-3-ylmethyl)-amino]-pyridin-3-ylmethyl}-1H-pyrrolo[2,3-b]pyridine-5-carbonitrile], the IC50 is less than 1000 nM.

In turn, `COc1ncccc1CNc1ccc(Cc2c[nH]c3ncc(C)cc23)cn1` [P-0285, (2-Methoxy-pyridin-3-ylmethyl)-[5-(5-methyl-1H-pyrrolo[2,3-b]pyridin-3-ylmethyl)-pyridin-2-yl]-amine] showed an IC50 of less than 1000 nM.

In turn, `COc1ncccc1CNc1ccc(Cc2c[nH]c3ncc(Cl)cc23)cn1` [P-0286, [5-(5-Chloro-1H-pyrrolo[2,3-b]pyridin-3-ylmethyl)-pyridin-2-yl]-(2-methoxy-pyridin-3-ylmethyl)-amine] yielded an IC50 of less than 1000 nM.

`COc1ncccc1CNc1ccc(Cc2c[nH]c3ncc(C#N)cc23)cn1` [P-0287, 3-{6-[(2-Methoxy-pyridin-3-ylmethyl)-amino]-pyridin-3-ylmethyl}-1H-pyrrolo[2,3-b]pyridine-5-carbonitrile] gave an IC50 of less than 1000 nM.

Turning to `CCOc1ccccc1CNc1ccc(Cc2c[nH]c3ncccc23)cn1` [P-0288, (2-Ethoxy-benzyl)-[5-(1H-pyrrolo[2,3-b]pyridin-3-ylmethyl)-pyridin-2-yl]-amine], the IC50 was less than 1000 nM.
